Source: US20080214678A1, “Biopesticide Comprising a Composition Rich in Diallyl Polysulphides” (priority 2003, published 2008)
≈ marks a conversion by molar mass, not a printed value. Like-named read-outs stand apart in the source and are kept apart here.

Columns and labels:
[1] = tested on: clothes moth Tineola bisselliella; assay: whole plant or invertebrate; type: in vivo; conditions: for LC50: Tineola bisselliella; for insecticidal activity: closed space, insects tested
Description: (§1) The pesticidal activity of the extracts is measured in a closed space on adult insects. Each value represents the mean of three experiments, each involving 30 insects representative of three different insect orders: • lepidoptera (the clothes moth Tineola bisselliella), • isoptera (the Saintonge termite Reticulitermes santonensis), and • coleoptera (the bean weevil Callosobruchus maculatus)

[2] = tested on: bean weevil Callosobruchus maculatus; assay: Pesticidal activity in a closed space on adult weevil (LC50); type: in vivo
Description: as §1

[3] = ambient temperature storage; cited from earlier work
[4] = adult insects, closed space, 24 h of treatment, NQ = non-quantifiable due to the absence of activity, read-out: Weevil LC50

SMILES	LC50 ([1]; 24 h, read-out: Mite LC50) [µg/mL]	LC50 ([1]; 24 h, read-out: Mite LC50 observed) [µg/mL]	LC50 ([1]; read-out: Mite LC50 calculated) [µg/mL]	insecticidal activity [1]	LC50 ([2]; adult insects, closed space, 24 h, NQ = no activity, read-out: Weevil LC50 observed) [µg/mL]	LC50 [2, 4] [µg/mL]	LC50 ([2]; theoretical, from total DASn content compared with DAS2 activity, read-out: Weevil LC50 calculated) [µg/mL]	stability at ambient temperature [3]
C=CCSSCC=C [DAS2, diallyl disulfide]	0.02 (≈ 0.137 µM)	0.02 (≈ 0.137 µM)	0.02 (≈ 0.137 µM)	show an insecticidal activity	0.5 (≈ 3.42 µM)	0.5 (≈ 3.42 µM)	0.5 (≈ 3.42 µM)	–
C=CCS[S+]([O-])CC=C (stereo not shown) [TiA2, allicin]	–	–	–	show an insecticidal activity	–	0.16 (≈ 0.986 µM)	–	low stability
